The numbers were not newly measured in patent publication US20110270212A1, “PHARMACOKINETIC CONTROL FOR OPTIMIZED INTERFERON DELIVERY” (MEDTRONIC, INC., priority 2007, published 2011), which cites them from elsewhere.

Data set [1] deals with HCV. The settings on record: in vivo.
The test system of data set [2] is HCV. The settings on record: oral doses up to 4500 mg.
For data set [3], the system named is HCV. To be noted: across all dosing arms.
The conditions of data set [4]: subcutaneously.
Data set [5] relates to HCV. The settings on record: ribavirin combined with interferon-α, genotype 1 population.
Data set [6] relates to Hepatitis C virus replication (replicon model). To be noted: via protease inhibition.

As to `[N-]=[N+]=N[C@]1(CO)O[C@@H](n2ccc(N)nc2=O)[C@H](O)[C@@H]1O` [R1626, 4′-azidocytidine], in the data set with HCV [1], the “response with pegylated interferon/ribavirin” value is on record as “good response”. For the same compound, the tolerability result in the data set with HCV [2] was “generally well-tolerated with increasing adverse events at the highest dose”.
On to `CC(C)C(=O)OC[C@H]1O[C@@H](n2ccc(N)nc2=O)[C@](C)(F)[C@@H]1OC(=O)C(C)C` [R71278], for which the antiviral activity result in the data set on HCV [3] is “dose-dependent antiviral activity”.
On to interferon-α, for which the “dose administered without adverse reactions” value in data set [4] is “up to 300 million IU/m^2”.
`NC(=O)c1ncn([C@@H]2O[C@H](CO)[C@@H](O)[C@H]2O)n1` [ribavirin, 1-β-D-ribofuranosyl-1H-1,2,4-triazole-3-carboxamide]: in the data set with HCV [5], the “therapeutic effectiveness of the combination” value was 29%.
Take `COc1ccc2c(O[C@@H]3C[C@H]4C(=O)N[C@]5(C(=O)NS(=O)(=O)C6CC6)C[C@H]5/C=C\CCCCN(C)C(=O)[C@@H]4C3)cc(-c3nc(C(C)C)cs3)nc2c1C` [TMC435350]: in data set [6], the “Hepatitis C virus replication in replicon experiments” value is “reduce the amount of Hepatitis C virus replication”.
